According to patent publication US11344534B2, “Cholinergic agonism for the treatment of pancreatic cancer” (priority 2017, dated 2022):
Entries after “also recorded” stand apart in the source; their conditions may differ.

How the values were obtained:
KPC mice = KPC mice with established PDAC treated with gemcitabine with or without bethanechol; type: in vivo, mouse; settings: KPC mice
From the text: Next, the role of cholinergic signaling in advanced pancreatic cancer was investigated using the genetically engineered KPC (K-Ras^+/LSL-G12D;p53^+/R172H;Pdx-1-Cre) mouse model, which develops ductal adenocarcinoma by 17-19 weeks (Olive et al., 2009, Hingorani et al., 2005).
K-Ras^+/LSL-G12D, p53^+/R172H, and Pdx-1-Cre mice were provided by Dr. Kenneth Olive (Columbia University). M1RKO mice were purchased from the Jackson Laboratory. KC mice and KPC mice were crossed with M1RKO mice. For several experiments, KC mice received pyloroplasty with or without vagotomy at 8 weeks and KC+VxPP mice were treated with or without bethanechol (400 μg/ml) after surgery immediately. They were sacrificed at 20 weeks. In addition, KPC mice were treated with gemcitabine biweekly and with or without bethanechol when the tumor size of 3-5 mm detected using ultrasound. They were sacrificed when the mice were moribund. For liver metastatic experiments, WT type C57/B6 mice received spleen injection and hemi-splenectomy. […] They were sacrificed when the mice were moribund.
Next, the role of cholinergic signaling in established PDAC was investigated using the KPC mouse model, which develops PDAC at a median age of 17-19 weeks^2, 29. KPC mice with pancreatic tumors that measured 3-5 mm in diameter on ultrasound were randomized to treatment with gemcitabine (GEM) alone, or GEM+bethanechol (FIG. 8I).
LSL-Kras^+/LSL-G12D, LSL-Trp53^+/R172H, and Pdx1-Cre mice were bred by Dr. Kenneth P. Olive and co-workers. Chrm1KO mice (C57BL/6-Chrm1tm1 Stl/J, (M1RKO) mice^1 were purchased from the Jackson Laboratory. KC mice and KPC mice were crossed with M1RKO mice. In the vagotomy experiments, KC mice received pyloroplasty with or without vagotomy at 8 weeks, and some KC+VxPP mice were treated with bethanechol ([…] in drinking water) immediately after surgery and then sacrificed at 20 weeks. KPC mice in treatment studies were palpated weekly for tumors in the pancreas. Once a tumor was suspected, KPC mice were screened by VEVO 2100—Ultrasound Imaging System (FUJIFILM VisualSonics) for pancreatic cancer. KPC mice were treated with gemcitabine, given by i.p. injection 100 mg/kg biweekly, with or without bethanechol, when a tumor size of 3-5 mm was detected using ultrasound. Mice were sacrificed when the mice were moribund. NOD/SCID mice were implanted with Panc1 cells subcutaneously and sacrificed at 30 days after implantation. For liver metastatic experiments, WT type C57/B6 mice received a splenic injection of labeled Panc02 cells, followed by hemi-splenectomy. The mice were then divided into three groups. […] Mice were then sacrificed when moribund. At necropsy, hepatic metastases that could clearly be identified as tumor nodules on gross inspection were separated. All animal studies and procedures were approved by the IACUC committee at Columbia University. All mice were bred under specific pathogen free conditions. Comparisons were made with age- and sex-matched control animals.
CD44, p-EGFR, p-PI3K, p-ERK, and Ki67 positive cells were quantified in at least five high power fields from at least 3 mice per group. Total cells per field were counted via morphometric analysis using ImageJ and the ratio of positive cells to total cell number calculated.

[1] = tested on: human PDAC cell lines (MiaPaca2, Panc1); experiment: MTT assay, human PDAC cell lines; type: cell-based; settings: for proliferation (MTT assay): 72 hours, 0.5% FBS medium
Procedure: (§1) Cell proliferation in each cell line was assessed with a 3-(4,5-dimethylthiazol-2yl)-2,5-diphenyltetrazolium bromide (MTT) assay kit (Sigma) in accordance with the manufacturer's instructions. 3×10^3 cells were grown in 96-well plate to around ˜70% confluent, changed the 0.5% FBS medium, added the drugs respectively and incubated them for further 72 hrs incubation in a typical CO2 incubator (˜20% O2). Treated cells were rinsed twice with PBS, incubated in 10 ll MTT solution for 4 hr at 37° C., and 100 uL DMSO was added to each well. The absorbance of each well was measured at 570 nm using Tilter-Tech 96-well multiscanner (Becton Dickinson, Heidelberg, Germany). The relative number of viable cells compared with the number of cells without drug treatment was expressed as percent cell viability using the following formula:
(§2) Cell proliferation in each cell line was assessed with a 3-(4,5-dimethylthiazol-2yl)-2,5-diphenyltetrazolium bromide (MTT) assay kit (Sigma) in accordance with the manufacturer's instructions. 3×10^3 cells were grown in 96-well plate to ˜70% confluency, the media was changed to 0.5% FBS medium, the respective drugs were added, and they were incubated for an additional 72 hours in a CO2 incubator (˜5% CO2). Treated cells were rinsed twice with PBS, incubated in 10 ul MTT (5 mg/ml PBS) solution for 4 hours at 37° C., and 100 uL DMSO was then added to each well. The absorbance of each well was measured at 570 nm using a Tilter-Tech 96-well multiscanner (Becton Dickinson, Heidelberg, Germany). The relative number of viable cells compared with the number of cells without drug treatment was expressed as percent cell viability using the following formula: cell viability (%)=A570 of treated cells/A570 of untreated cells.

[2] = tested on: Organoid cultures derived from LSL-K-Ras^G12D pancreata not treated by an Adeno-Cre virus; type: cell-based; settings: no Adeno-Cre virus (Kras not activated)
[3] = tested on: murine PDAC cell lines (Panc02, K8282); experiment: MTT assay, murine PDAC cell lines; type: cell-based, mouse; settings: for proliferation (MTT assay): 72 hours, 0.5% FBS medium
Procedure: as §1, §2

murine K8282 cells = experiment: Western blot of EGFR/MAPK and PI3K/AKT signaling, K8282; type: cell-based, mouse; settings: for phosphorylation of EGFR, BRAF, ERK1/2, PI3K and AKT kinases (western blot): 72 hours; for ratios of p-EGFR/EGFR, p-BRAF/BRAF, p-ERK/ERK, p-PI3K/PI3K and p-AKT/AKT (densitometry): single agent alone
Procedure: (§3) To analyze EGFR and the MAPK and PI3K-Akt pathway in human and murine pancreatic cancer cell lines, cells were grown in 12-well plate to around ˜70% confluent, changed the 0.5% FBS medium, added the drugs respectively and incubated them for further 72 hrs incubation in a typical CO2 incubator (˜20% O2). After removing the medium, cells were washed twice with PBS, and protein extraction was performed on ice using RIPA buffer with protease inhibitor (Complete) (Roche) cocktail and phosphatase inhibitor (phosSTOP) (Roche). Protein samples were subsequently separated in 10% Bis-Tris Gel NuPAGE® electrophoresis using MES SDS Running Buffer (Invitrogen, CA, USA). After transfer to nitrocellulose, membranes were blocked with 5% BSA, and samples were probed with the following primary antibodies: p-EGFR (Cell Signaling), EGFR (Cell Signaling), p-BRAF (Cell Signaling), BRAF (Cell Signaling), p-ERK1/2 (phosphorylated p44/42 MAPK) (Thr202/Tyr204) (Cell Signaling), ERK1/2 (p44/42 MAPK) (Thr202/Tyr204) (Cell Signaling), p-PI3K (Cell Signaling), PI3K (Cell Signaling), p-Akt (Cell Signaling), Akt (Cell Signaling), and β-actin (Cell Signaling) followed by horseradish peroxidase-coupled secondary antibody. Immunoreactive bands were visualized using 5-bromo-4-chloro-3-indolyl phosphate/nitro blue tetrazolium and bands were quantified with ImageJ.
(§4) To analyze EGFR, MAPK and PI3K-AKT pathways in human and murine pancreatic cancer cell lines, cells were grown in 12-well culture plates to ˜70% confluency. The medium was then changed to 0.5% FBS medium, the respective drugs were added, and they were incubated for an additional 72 hours in a CO2 incubator (˜5% CO2). After removing the medium, cells were washed twice with PBS, and protein extraction was performed on ice using RIPA buffer with protease inhibitor (Complete, Roche) cocktail and a phosphatase inhibitor (phosSTOP, Roche). Protein samples were subsequently separated by 10% Bis-Tris Gel NuPAGE® electrophoresis using MES SDS Running Buffer (Invitrogen, CA, USA). After transfer to nitrocellulose, membranes were blocked with 5% BSA, and samples were probed with the following primary antibodies: p-EGFR (Cell Signaling), EGFR (Cell Signaling), p-BRAF (Cell Signaling), BRAF (Cell Signaling), p-ERK1/2 (phosphorylated p44/42 MAPK) (Thr202/Tyr204) (Cell Signaling), ERK1/2 (p44/42 MAPK) (Thr202/Tyr204) (Cell Signaling), p-PI3K (Cell Signaling), PI3K (Cell Signaling), p-AKT (Cell Signaling), AKT (Cell Signaling), and β-actin (Cell Signaling) followed by horseradish peroxidase-coupled secondary antibody. Immunoreactive bands were visualized using 5-bromo-4-chloro-3-indolyl phosphate/nitro blue tetrazolium and bands were quantified with ImageJ.

human Panc1 cells = experiment: Western blot of EGFR/MAPK and PI3K/AKT signaling, Panc1; type: cell-based; settings: for phosphorylation of EGFR, BRAF, ERK1/2, PI3K and AKT kinases (western blot): 72 hours; for ratios of p-EGFR/EGFR, p-BRAF/BRAF, p-ERK/ERK, p-PI3K/PI3K and p-AKT/AKT (densitometry): single agent alone
Procedure: as §3, §4

[4] = tested on: Kras^+/LSL-G12D mutant spheres; experiment: 3D Matrigel sphere culture of Kras mutant (Ad-Cre) pancreatic acinar cells; type: cell-based, mouse; settings: for number of spheres / size of spheres: day 5, pilocarpine 1 mM, scopolamine 10 μM, McN-34A 50 μM, pirenzepine 50 μM, vs controls; for sphere formation and growth of Kras mutant spheres: oncogenic K-Ras allele activated by adeno-Cre virus
Procedure: Cholinergic stimulation could in theory promote cancer indirectly through effects on stromal cells, or directly through effects on pancreatic epithelial cells. To determine whether cholinergic stimulation promoted tumor development in part through muscarinic receptors on cancer cells, the sphere forming capacity of K-Ras^+/LSL-G12D mutant pancreatic acinar cells was assessed in a 3D Matrigel culture system, with or without muscarinic stimulation. K-Ras^+/LSL-G12D mutant spheres were generated from K-Ras^+/LSL-G12D pancreatic acinar cells by treatment with adenoviral delivered Cre (Ad-Cre).
3D cultures were performed as described previously (Wescott et al., 2009). Organoids were cultured for 5 days before analysis. Adenoviral delivered Cre (Ad-Cre) was added to the cultures and medium was changed after 12 hours. […] Sphere size and […] were analyzed using ImageJ software.
To determine whether cholinergic stimulation suppresses tumor development in part through specific muscarinic receptors on cancer cells, the sphere forming capacity of Kras^+/LSL-G12D pancreatic acinar cells in a 3D Matrigel culture system in the absence and presence of muscarinic agonists and antagonists was assessed. Kras^+/LSL-G12D mutant spheres were generated from Kras^+/LSL-G12D mice by delivery of an adenoviral Cre (Ad-Cre).
3D cultures were performed as described previously^18. Organoids were cultured for 5 days before analysis. Adenoviral delivered Cre (Ad-Cre) was added to the cultures and medium was changed after 12 hours. […] Sphere size and number were analyzed using ImageJ software.

CHRM1 [5] = experiment: qRT-PCR of muscarinic receptor expression, human PDAC cell lines; type: cell-based; settings: human PDAC cell lines (MiaPaca2 and Panc1), compared to control
Chrm1 [6] = experiment: qRT-PCR of muscarinic receptor expression, murine PDAC cell lines; type: cell-based, mouse; settings: murine PDAC cell lines (Panc02 and K8282), compared to control

SMILES: Nc1ccn([C@@H]2O[C@H](CO)[C@@H](O)C2(F)F)c(=O)n1 [GEM]
- overall survival (KPC mice; GEM with or without bethanechol): 29 days
- overall survival (KPC mice; tumors 3-5 mm at enrollment, GEM biweekly i.p. with or without bethanechol): 29 days

SMILES: C[N+](C)(C)CC#CCOC(=O)Nc1cccc(Cl)c1.[Cl-] [McN-34A]
- proliferation (MTT assay) [1]: suppressed
- increase in proliferation due to muscarinic antagonists ([1]; agonist added to antagonist): blocked; also recorded: inhibited to some extent
- sphere forming capacity / growth of WT spheres [2]: increased
- proliferation (MTT assay) [3]: suppressed
- increase in proliferation due to muscarinic antagonists ([3]; agonist added to antagonist): blocked; also recorded: inhibited to some extent
- phosphorylation of EGFR, BRAF, ERK1/2, PI3K and AKT kinases (western blot) (murine K8282 cells): significantly less phosphorylated
- ratios of p-EGFR/EGFR, p-BRAF/BRAF, p-ERK/ERK, p-PI3K/PI3K and p-AKT/AKT (densitometry) (murine K8282 cells): significantly decreased
- phosphorylation of EGFR, BRAF, ERK1/2, PI3K and AKT kinases (western blot) (human Panc1 cells): significantly less phosphorylated
- ratios of p-EGFR/EGFR, p-BRAF/BRAF, p-ERK/ERK, p-PI3K/PI3K and p-AKT/AKT (densitometry) (human Panc1 cells): significantly decreased
- number of spheres [4]: significantly fewer
- size of spheres [4]: smaller
- sphere formation and growth of Kras mutant spheres [4]: suppressed

SMILES: CN1CCN(CC(=O)N2c3ccccc3C(=O)Nc3cccnc32)CC1 [pirenzepine]
- proliferation (MTT assay) [1]: increased; also recorded: stimulated
- sphere forming capacity / growth of WT spheres [2]: significantly prevents
- proliferation (MTT assay) [3]: increased; also recorded: stimulated
- phosphorylation of EGFR, BRAF, ERK1/2, PI3K and AKT kinases (western blot) (murine K8282 cells): significantly more phosphorylated
- ratios of p-EGFR/EGFR, p-BRAF/BRAF, p-ERK/ERK, p-PI3K/PI3K and p-AKT/AKT (densitometry) (murine K8282 cells): increased
- phosphorylation of EGFR, BRAF, ERK1/2, PI3K and AKT kinases (western blot) (human Panc1 cells): significantly more phosphorylated
- ratios of p-EGFR/EGFR, p-BRAF/BRAF, p-ERK/ERK, p-PI3K/PI3K and p-AKT/AKT (densitometry) (human Panc1 cells): increased
- number of spheres [4]: significantly more
- size of spheres [4]: larger
- sphere formation and growth of Kras mutant spheres [4]: stimulated

SMILES: CN1[C@@H]2C[C@@H](OC(=O)[C@H](CO)c3ccccc3)C[C@H]1[C@@H]1O[C@@H]12 [scopolamine]
- proliferation (MTT assay) [1]: increased; also recorded: stimulated
- Chrm1 expression (CHRM1 [5]): increased; also recorded: higher
- Chrm1 expression (Chrm1 [6]): increased; also recorded: higher
- proliferation (MTT assay) [3]: increased
- phosphorylation of EGFR, BRAF, ERK1/2, PI3K and AKT kinases (western blot) (murine K8282 cells): significantly more phosphorylated
- phosphorylation of EGFR, BRAF, ERK1/2, PI3K and AKT kinases (western blot) (human Panc1 cells): significantly more phosphorylated
- number of spheres [4]: significantly more; also recorded: increased
- size of spheres [4]: larger
- sphere formation and growth of Kras mutant spheres [4]: increase
